Reference: patent US20200187499A1, “SUBSTITUTED BENZYL-4-AMINOPICOLINIC ESTERS AND PYRIMIDINO-4-CARBOXYLIC ESTERS, METHODS FOR THE PRODUCTION THEREOF, AND USE THEREOF AS HERBICIDES AND PLANT GROWTH REGULATORS” (Bayer CropScience Aktiengesellschaft, priority 2017, published 2020)

Columns and labels:
Type in all cases: in vivo
SETVI [1] = test: Post-emergence herbicidal action; conditions: 320 g/ha, assessed after about 3 weeks
Method in brief: (§1)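 Visual percent herbicidal action (0% = like control, 100% = dead) was scored roughly 3 weeks after treatment. Compounds were sprayed post-emergence as aqueous WP/EC preparations, 600–800 l/ha water plus 0.2% wetting agent. Plants were at the one-leaf stage, 2–3 weeks after sowing in sandy loam, greenhouse-grown.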

STEME = test: Post-emergence herbicidal action; conditions: 320 g/ha, assessed after about 3 weeks
Method in brief: as §1

AMARE [2] = test: Post-emergence herbicidal action; conditions: 320 g/ha, assessed after about 3 weeks
Method in brief: as §1

ABUTH [3] = test: Post-emergence herbicidal action; conditions: 320 g/ha, assessed after about 3 weeks
Method in brief: as §1

POLCO [4] = test: Pre-emergence herbicidal action; conditions: Table 2, pre-emergence (PE), 320 g/ha, scored after 3 weeks
Method in brief: (§2)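 Weed seeds sown in sandy loam and covered with soil; compounds formulated as WP or EC applied to the covering soil surface as aqueous suspension/emulsion at 600 to 800 l/ha water plus 0.2% wetting agent. Greenhouse growth; damage scored visually after 3 weeks against untreated controls (100% = plants dead, 0% = like control).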

VIOTR [5] = test: Pre-emergence herbicidal action; conditions: Table 2, pre-emergence (PE), 320 g/ha, scored after 3 weeks
Method in brief: as §2

SETVI [6] = test: Pre-emergence herbicidal action; conditions: 320 g/ha, scored after 3 weeks
Method in brief: as §2

ECHCG [7] = test: Pre-emergence herbicidal action; conditions: 320 g/ha, scored after 3 weeks
Method in brief: as §2

ALOMY = test: Pre-emergence herbicidal action; conditions: 320 g/ha, scored after 3 weeks
Method in brief: as §2

AMARE [8] = test: Pre-emergence herbicidal action; conditions: 320 g/ha, scored after 3 weeks
Method in brief: as §2

ABUTH [9] = test: Pre-emergence herbicidal action; conditions: 320 g/ha, scored after 3 weeks
Method in brief: as §2

POLCO [10] = test: Post-emergence herbicidal action; conditions: Table 5, post-emergence (PO), 320 g/ha, assessed after about 3 weeks
Method in brief: as §1

VIOTR [11] = test: Post-emergence herbicidal action; conditions: Table 5, post-emergence (PO), 320 g/ha, assessed after about 3 weeks
Method in brief: as §1

PHBPU = test: Post-emergence herbicidal action; conditions: Table 5, post-emergence (PO), 320 g/ha, assessed after about 3 weeks
Method in brief: as §1

ECHCG [12] = test: Post-emergence herbicidal action; conditions: Table 5, post-emergence (PO), 320 g/ha, assessed after about 3 weeks
Method in brief: as §1

SMILES | Herbicidal action against SETVI (SETVI [1]; Table 6, post-emergence (PO)) | Herbicidal action against STEME (STEME; Table 6, post-emergence (PO)) | Herbicidal action against AMARE (AMARE [2]; Table 6, post-emergence (PO)) | Herbicidal action against ABUTH (ABUTH [3]; Table 6, post-emergence (PO)) | Herbicidal action against POLCO (POLCO [4]) | Herbicidal action against VIOTR (VIOTR [5]) | Herbicidal action against SETVI (SETVI [6]; Table 2, pre-emergence (PE)) | Herbicidal action against ECHCG (ECHCG [7]; Table 2, pre-emergence (PE)) | Herbicidal action against ALOMY (ALOMY; Table 2, pre-emergence (PE)) | Herbicidal action against AMARE (AMARE [8]; Table 2, pre-emergence (PE)) | Herbicidal action against ABUTH (ABUTH [9]; Table 2, pre-emergence (PE)) | Herbicidal action against POLCO (POLCO [10]) | Herbicidal action against VIOTR (VIOTR [11]) | Herbicidal action against SETVI (SETVI [1]; Table 5, post-emergence (PO)) | Herbicidal action against PHBPU (PHBPU) | Herbicidal action against STEME (STEME; Table 5, post-emergence (PO)) | Herbicidal action against ECHCG (ECHCG [12]) | Herbicidal action against AMARE (AMARE [2]; Table 5, post-emergence (PO)) | Herbicidal action against ABUTH (ABUTH [3]; Table 5, post-emergence (PO)) | further results
COc1c(F)ccc(COC(=O)c2nc(-c3ccc4ccsc4c3)cc(N)c2Cl)c1F [Example I-08] | 70% | 100% | 100% | 100% | 100% | 20% | 90% | 100% | 60% | 100% | 0% |  |  |  |  |  |  |  |  | 
Nc1cc(-c2ccc3sccc3c2)nc(C(=O)OCc2ccc(F)cc2F)c1Cl [Example I-18] |  |  |  |  | 10% | 20% | 70% | 100% | 30% | 100% | 40% | 80% | 90% | 90% | 80% | 80% | 100% | 100% | 100% | 
Nc1cc(-c2ccc3ccsc3c2)nc(C(=O)OCc2cccc(F)c2)c1Cl [Example I-10] |  |  |  |  | 0% | 40% | 90% | 100% | 70% | 100% | 30% | 100% | 70% | 90% | 80% | 100% | 90% | 100% | 100% | 
Nc1cc(-c2ccc3occc3c2)nc(C(=O)OCc2cc(F)c(F)cc2F)c1Cl [Example I-06] | 90% | 100% | 100% | 100% | 100% | 60% | 90% | 100% | 80% | 100% | 20% |  |  |  |  |  |  |  |  | 
Nc1cc(-c2ccc3ccsc3c2)nc(C(=O)OCc2ccccc2F)c1Cl [Example I-01] |  |  |  |  | 100% | 70% | 90% | 100% | 60% | 100% | 80% | 100% | 50% | 80% | 90% | 100% | 90% | 100% | 100% | 
Nc1cc(-c2ccc3ccsc3c2)nc(C(=O)OCc2ccc(F)cc2F)c1Cl [Example I-12] | 100% | 100% | 100% | 90% | 100% | 20% | 90% | 100% | 70% | 100% | 20% |  |  |  |  |  |  |  |  | 
Nc1cc(-c2ccc3sccc3c2)nc(C(=O)OCc2cccc(F)c2)c1Cl [Example I-09] |  |  |  |  | 90% | 60% | 90% | 100% | 20% | 90% | 70% | 70% | 90% | 90% | 80% | 100% | 100% | 100% | 100% | 
Nc1cc(-c2ccc3occc3c2)nc(C(=O)OCc2c(F)cc(F)cc2F)c1Cl [Example I-20] | 100% | 100% | 100% | 100% | 100% | 40% | 100% | 100% | 70% | 100% | 50% |  |  |  |  |  |  |  |  | 
Nc1cc(-c2ccc3occc3c2)nc(C(=O)OCc2ccc(C(F)(F)F)cc2)c1Cl [Example I-36] | 80% | 100% | 100% | 100% | 90% | 0% | 90% | 90% | 50% | 100% | 90% |  |  |  |  |  |  |  |  | 
Nc1cc(-c2ccc3occc3c2)nc(C(=O)OCc2ccc(F)c(F)c2F)c1Cl [Example I-13] |  |  |  |  | 100% | 30% | 100% | 90% | 80% | 100% | 30% | 100% | 100% | 90% | 80% | 100% | 90% | 100% | 100% | 
Nc1cc(-c2ccc3sccc3c2)nc(C(=O)OCc2ccc(C(F)(F)F)cc2)c1Cl [Example I-16] |  |  |  |  | 70% | 30% | 80% | 100% | 30% | 80% | 80% | 90% | 90% | 90% | 80% | 80% | 90% | 100% | 100% | 
Nc1cc(-c2ccc3ccsc3c2)nc(C(=O)OCc2ccc(Cl)cc2)c1Cl [Example I-14] |  |  |  |  |  |  |  |  |  |  |  | 100% | 70% | 90% | 80% | 100% | 90% | 100% | 100% | Herbicidal action against SETVI (SETVI [6]; Table 3, pre-emergence (PE)): 80%; Herbicidal action against ECHCG (ECHCG [7]; Table 3, pre-emergence (PE)): 100%; Herbicidal action against ALOMY (ALOMY; Table 3, pre-emergence (PE)): 30%; Herbicidal action against AMARE (AMARE [8]; Table 3, pre-emergence (PE)): 100%; Herbicidal action against ABUTH (ABUTH [9]; Table 3, pre-emergence (PE)): 50%
